Test system: P12-Ichikawa
Assay: cell viability relative to DMSO control; higher = less cytotoxic
Conditions: 48 h
How it was run: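 NOMO1, SEM and P12-Ichikawa leukemia cells spent at least four passages adapting to each medium before use. They were seeded at 500 cells/well (NOMO1, SEM) or 1000 cells/well (P12-Ichikawa) in 5 μl in 1536-well plates and pin-dosed with library compounds in DMSO at 11 threefold steps from 47 μM down to 0.79 nM. After 48 h at 37°C, CellTiter-Glo One luminescence was read. Viability is reported as a percentage of the DMSO wells on each plate, with cell-free wells as background.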

[1] = HPLM + 10% dialyzed FBS, 0.000781 µM
[2] = HPLM + 10% dialyzed FBS, 0.00234 µM
[3] = HPLM + 10% dialyzed FBS, 0.00702 µM
[4] = HPLM + 10% dialyzed FBS, 0.0211 µM
[5] = HPLM + 10% dialyzed FBS, 0.0632 µM
[6] = HPLM + 10% dialyzed FBS, 0.19 µM
[7] = HPLM + 10% dialyzed FBS, 0.569 µM
[8] = HPLM + 10% dialyzed FBS, 1.71 µM
[9] = HPLM + 10% dialyzed FBS, 5.12 µM
[10] = HPLM + 10% dialyzed FBS, 15.4 µM
[11] = HPLM + 10% dialyzed FBS, 46.1 µM
[12] = RPMI 5 mM glucose + 10% FBS, 0.000781 µM
[13] = RPMI 5 mM glucose + 10% FBS, 0.00234 µM
[14] = RPMI 5 mM glucose + 10% FBS, 0.00702 µM
[15] = RPMI 5 mM glucose + 10% FBS, 0.0211 µM
[16] = RPMI 5 mM glucose + 10% FBS, 0.0632 µM
[17] = RPMI 5 mM glucose + 10% FBS, 0.19 µM
[18] = RPMI 5 mM glucose + 10% FBS, 0.569 µM
[19] = RPMI 5 mM glucose + 10% FBS, 1.71 µM
[20] = RPMI 5 mM glucose + 10% FBS, 5.12 µM
[21] = RPMI 5 mM glucose + 10% FBS, 15.4 µM
[22] = RPMI 5 mM glucose + 10% FBS, 46.1 µM
[23] = RPMI 5 mM glucose + 10% dialyzed FBS, 0.000781 µM
[24] = RPMI 5 mM glucose + 10% dialyzed FBS, 0.00234 µM
[25] = RPMI 5 mM glucose + 10% dialyzed FBS, 0.00702 µM
[26] = RPMI 5 mM glucose + 10% dialyzed FBS, 0.0211 µM
[27] = RPMI 5 mM glucose + 10% dialyzed FBS, 0.0632 µM
[28] = RPMI 5 mM glucose + 10% dialyzed FBS, 0.19 µM
[29] = RPMI 5 mM glucose + 10% dialyzed FBS, 0.569 µM
[30] = RPMI 5 mM glucose + 10% dialyzed FBS, 1.71 µM
[31] = RPMI 5 mM glucose + 10% dialyzed FBS, 5.12 µM
[32] = RPMI 5 mM glucose + 10% dialyzed FBS, 15.4 µM
[33] = RPMI 5 mM glucose + 10% dialyzed FBS, 46.1 µM

## OC(=O)\C1=C\N(C2=CC=C(F)C=C2)C3=C(C=C(F)C(=C3)N4CCNCC4)C1=O
[1]
  cell viability: 121%
[2]
  cell viability: 116%
[3]
  cell viability: 112%
[4]
  cell viability: 124%
[5]
  cell viability: 124%
[6]
  cell viability: 117%
[7]
  cell viability: 114%
[8]
  cell viability: 115%
[9]
  cell viability: 108%
[10]
  cell viability: 103%
[11]
  cell viability: 91%
[12]
  cell viability: 126%
[13]
  cell viability: 118%
[14]
  cell viability: 118%
[15]
  cell viability: 120%
[16]
  cell viability: 117%
[17]
  cell viability: 113%
[18]
  cell viability: 112%
[19]
  cell viability: 121%
[20]
  cell viability: 117%
[21]
  cell viability: 99.1%
[22]
  cell viability: 92.1%
[23]
  cell viability: 119%
[24]
  cell viability: 111%
[25]
  cell viability: 115%
[26]
  cell viability: 115%
[27]
  cell viability: 104%
[28]
  cell viability: 114%
[29]
  cell viability: 111%
[30]
  cell viability: 102%
[31]
  cell viability: 108%
[32]
  cell viability: 91.5%
[33]
  cell viability: 87.2%

## CCOc1ccc(Nc2nc(-c3c(C)nc4ccccn34)cs2)cc1
[1]
  cell viability: 117%
[2]
  cell viability: 116%
[3]
  cell viability: 116%
[4]
  cell viability: 103%
[5]
  cell viability: 53.8%
[6]
  cell viability: 19.3%
[7]
  cell viability: 26.3%
[8]
  cell viability: 24.1%
[9]
  cell viability: 16.3%
[10]
  cell viability: 14.5%
[11]
  cell viability: 9.9%
[12]
  cell viability: 116%
[13]
  cell viability: 121%
[14]
  cell viability: 129%
[15]
  cell viability: 109%
[16]
  cell viability: 72.8%
[17]
  cell viability: 16.7%
[18]
  cell viability: 19.6%
[19]
  cell viability: 19.6%
[20]
  cell viability: 22.3%
[21]
  cell viability: 17.5%
[22]
  cell viability: 9.84%
[23]
  cell viability: 104%
[24]
  cell viability: 116%
[25]
  cell viability: 110%
[26]
  cell viability: 108%
[27]
  cell viability: 94.2%
[28]
  cell viability: 28.9%
[29]
  cell viability: 29.6%
[30]
  cell viability: 30.3%
[31]
  cell viability: 27.3%
[32]
  cell viability: 28.1%
[33]
  cell viability: 14.8%

## C[C@@H](O)[C@@H]1[C@H]2[C@@H](C)\C(=C(/N2C1=O)C(=O)OCOC(=O)C(C)(C)C)SC3CN(C3)/C4=N/CCS4
[1]
  cell viability: 95.2%
[2]
  cell viability: 107%
[3]
  cell viability: 110%
[4]
  cell viability: 111%
[5]
  cell viability: 112%
[6]
  cell viability: 108%
[7]
  cell viability: 111%
[8]
  cell viability: 112%
[9]
  cell viability: 112%
[10]
  cell viability: 116%
[11]
  cell viability: 109%
[12]
  cell viability: 78.9%
[13]
  cell viability: 102%
[14]
  cell viability: 108%
[15]
  cell viability: 100%
[16]
  cell viability: 109%
[17]
  cell viability: 104%
[18]
  cell viability: 107%
[19]
  cell viability: 111%
[20]
  cell viability: 107%
[21]
  cell viability: 111%
[22]
  cell viability: 103%
[23]
  cell viability: 97.3%
[24]
  cell viability: 106%
[25]
  cell viability: 109%
[26]
  cell viability: 118%
[27]
  cell viability: 107%
[28]
  cell viability: 108%
[29]
  cell viability: 109%
[30]
  cell viability: 102%
[31]
  cell viability: 111%
[32]
  cell viability: 111%
[33]
  cell viability: 111%

## C[C@@]12O[C@@H](C[C@]1(O)CO)n1c3ccccc3c3c4c(c5c6ccccc6n2c5c31)CNC4=O
[1]
  cell viability: 115%
[2]
  cell viability: 112%
[3]
  cell viability: 109%
[4]
  cell viability: 112%
[5]
  cell viability: 110%
[6]
  cell viability: 101%
[7]
  cell viability: 81.3%
[8]
  cell viability: 29.9%
[9]
  cell viability: 23.2%
[10]
  cell viability: 15.2%
[11]
  cell viability: 12.9%
[12]
  cell viability: 116%
[13]
  cell viability: 117%
[14]
  cell viability: 121%
[15]
  cell viability: 110%
[16]
  cell viability: 111%
[17]
  cell viability: 98.2%
[18]
  cell viability: 70.5%
[19]
  cell viability: 26.1%
[20]
  cell viability: 26.6%
[21]
  cell viability: 15.6%
[22]
  cell viability: 8.24%
[23]
  cell viability: 115%
[24]
  cell viability: 109%
[25]
  cell viability: 115%
[26]
  cell viability: 103%
[27]
  cell viability: 97.6%
[28]
  cell viability: 104%
[29]
  cell viability: 62.3%
[30]
  cell viability: 33.8%
[31]
  cell viability: 24.3%
[32]
  cell viability: 9.03%
[33]
  cell viability: 8.99%

## CN(C)C(=O)c1ccc([S+](=O)([O-])c2ccc(NC(=O)[C@@](C)(O)C(F)(F)F)c(Cl)c2)cc1
[1]
  cell viability: 105%
[2]
  cell viability: 111%
[3]
  cell viability: 107%
[4]
  cell viability: 113%
[5]
  cell viability: 116%
[6]
  cell viability: 117%
[7]
  cell viability: 114%
[8]
  cell viability: 117%
[9]
  cell viability: 100%
[10]
  cell viability: 100%
[11]
  cell viability: 43.3%
[12]
  cell viability: 98%
[13]
  cell viability: 98.1%
[14]
  cell viability: 107%
[15]
  cell viability: 108%
[16]
  cell viability: 115%
[17]
  cell viability: 110%
[18]
  cell viability: 97.9%
[19]
  cell viability: 101%
[20]
  cell viability: 93.9%
[21]
  cell viability: 80.9%
[22]
  cell viability: 62.6%
[23]
  cell viability: 106%
[24]
  cell viability: 110%
[25]
  cell viability: 102%
[26]
  cell viability: 118%
[27]
  cell viability: 114%
[28]
  cell viability: 117%
[29]
  cell viability: 118%
[30]
  cell viability: 106%
[31]
  cell viability: 103%
[32]
  cell viability: 72.5%
[33]
  cell viability: 63.5%

## CN1\C(=C(\O)C2=C(C=CS2)[S+]1([O-])=O)C(=O)NC3=CC=CC=N3
[1]
  cell viability: 110%
[2]
  cell viability: 105%
[3]
  cell viability: 114%
[4]
  cell viability: 116%
[5]
  cell viability: 114%
[6]
  cell viability: 111%
[7]
  cell viability: 110%
[8]
  cell viability: 105%
[9]
  cell viability: 106%
[10]
  cell viability: 103%
[11]
  cell viability: 104%
[12]
  cell viability: 110%
[13]
  cell viability: 128%
[14]
  cell viability: 119%
[15]
  cell viability: 116%
[16]
  cell viability: 118%
[17]
  cell viability: 118%
[18]
  cell viability: 118%
[19]
  cell viability: 92.1%
[20]
  cell viability: 103%
[21]
  cell viability: 97.9%
[22]
  cell viability: 101%
[23]
  cell viability: 117%
[24]
  cell viability: 113%
[25]
  cell viability: 116%
[26]
  cell viability: 115%
[27]
  cell viability: 118%
[28]
  cell viability: 111%
[29]
  cell viability: 110%
[30]
  cell viability: 109%
[31]
  cell viability: 100%
[32]
  cell viability: 105%
[33]
  cell viability: 109%

## CN(C/C=C/C#CC(C)(C)C)Cc1cccc2ccccc12
[1]
  cell viability: 96.2%
[2]
  cell viability: 103%
[3]
  cell viability: 101%
[4]
  cell viability: 104%
[5]
  cell viability: 105%
[6]
  cell viability: 103%
[7]
  cell viability: 106%
[8]
  cell viability: 90.6%
[9]
  cell viability: 103%
[10]
  cell viability: 105%
[11]
  cell viability: 107%
[12]
  cell viability: 90.6%
[13]
  cell viability: 93.1%
[14]
  cell viability: 100%
[15]
  cell viability: 93.8%
[16]
  cell viability: 100%
[17]
  cell viability: 105%
[18]
  cell viability: 101%
[19]
  cell viability: 101%
[20]
  cell viability: 98.9%
[21]
  cell viability: 102%
[22]
  cell viability: 94.5%
[23]
  cell viability: 92.3%
[24]
  cell viability: 94.4%
[25]
  cell viability: 89.7%
[26]
  cell viability: 92.3%
[27]
  cell viability: 99.5%
[28]
  cell viability: 90.8%
[29]
  cell viability: 90.9%
[30]
  cell viability: 96.5%
[31]
  cell viability: 91.8%
[32]
  cell viability: 91.3%
[33]
  cell viability: 93.8%

— the supplement of paper PMC11451515
